Measurements: ChEMBL document CHEMBL1201862, “PubChem BioAssay data set” (2004)
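Interpolation was linear, between the two tested concentrations surrounding the appropriate level; five concentrations were tested over 48 hours in 96-well plates. GI50: concentration for 50% inhibition of growth.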 The source made the active and inactive calls. No stated cut-off is given here; in the data, active = GI50 up to about 1.1 µM and inactive = higher.

Columns and labels:
Assay in all cases: inhibition of tumour cell growth, NCI panel, 48 h
[1] = system: BT-549
[2] = system: CAKI-1
[3] = system: HCC 2998
[4] = system: HL-60
[5] = system: HOP-92
[6] = system: HT-29
[7] = system: IGROV-1
[8] = system: K562
[9] = system: MDA-MB-231
[10] = system: MDA-MB-435
[11] = system: NCI-H460
[12] = system: OVCAR-3
[13] = system: PC-3
[14] = system: RXF 393
[15] = system: SK-OV-3
[16] = system: SN12C
[17] = system: SNB-19
[18] = system: SR
[19] = system: UACC-62
[20] = system: UO-31

| Compound | GI50 [1] | GI50 [2] | GI50 [3] | GI50 [4] | GI50 [5] | GI50 [6] | GI50 [7] | GI50 [8] | GI50 [9] | GI50 [10] | GI50 [11] | GI50 [12] | GI50 [13] | GI50 [14] | GI50 [15] | GI50 [16] | GI50 [17] | GI50 [18] | GI50 [19] | GI50 [20] |
| --- | --- | --- | --- | --- | --- | --- | --- | --- | --- | --- | --- | --- | --- | --- | --- | --- | --- | --- | --- | --- |
| COC1=CC(=O)c2c(cc(COP(=O)(N(C)CCBr)N(C)CCBr)n2C)C1=O | 1.38 µM (inactive) | < 0.0182 µM (active) | 0.494 µM (active) | 0.0543 µM (active) | 0.69 µM (active) | 0.0413 µM (active) | 2.31 µM (inactive) | 1.52 µM (inactive) | 3.91 µM (inactive) | 1.09 µM (active) | 0.0582 µM (active) | 2.16 µM (inactive) | 6.82 µM (inactive) | 0.229 µM (active) | 0.918 µM (active) | < 0.0272 µM (active) | 0.798 µM (active) | < 0.01 µM (active) | 0.414 µM (active) |  |
| CCCN(CCCCC(NC(C)=O)C(=O)NCc1ccccc1)C(=O)N(CCCl)N=O (configuration not stated) | 75.7 µM (inactive) | > 79.8 µM (inactive) | > 58.9 µM (inactive) | 22.3 µM (inactive) | 43.8 µM (inactive) | > 96.6 µM (inactive) | > 92.3 µM (inactive) | 65.2 µM (inactive) | > 100 µM (inactive) | > 100 µM (inactive) | 10.1 µM (inactive) | > 100 µM (inactive) | 32.8 µM (inactive) | 66.1 µM (inactive) | > 100 µM (inactive) | 58.3 µM (inactive) | 31.9 µM (inactive) | 19.3 µM (inactive) | 11.7 µM (inactive) | 84.1 µM (inactive) |
| C=C1C(=O)O[C@@H]2[C@H]1C[C@H](I)[C@@]1(C)CC[C@H](O1)[C@](C)(I)CCCC(C)[C@@H]2O (some centres not stated) | 7.23 µM (inactive) | 1.96 µM (inactive) | 12.2 µM (inactive) | 1.31 µM (inactive) | 1.54 µM (inactive) | 1.93 µM (inactive) | 2.01 µM (inactive) | 2.37 µM (inactive) | 4.22 µM (inactive) | 4.9 µM (inactive) | 14.5 µM (inactive) | 2.64 µM (inactive) | 6.03 µM (inactive) | 1.69 µM (inactive) | 16.6 µM (inactive) | 4.98 µM (inactive) | 16.4 µM (inactive) | 2 µM (inactive) | 4.92 µM (inactive) | 3.66 µM (inactive) |
| CC(Oc1ccc(Cl)cc1Cl)C(=O)NN1C(=O)CC(=O)N(c2ccccc2)C1=S (configuration not stated) | 59.6 µM (inactive) | 53.6 µM (inactive) | 63.4 µM (inactive) | 0.527 µM (active) | 24.9 µM (inactive) | 70.1 µM (inactive) | 55.3 µM (inactive) | 41.7 µM (inactive) | 65.9 µM (inactive) | 41.9 µM (inactive) | 62.8 µM (inactive) | 42.5 µM (inactive) | 40.5 µM (inactive) | 41 µM (inactive) | > 100 µM (inactive) | 52.4 µM (inactive) | 66.4 µM (inactive) | 4.67 µM (inactive) | 37.5 µM (inactive) | 64.7 µM (inactive) |
| N#Cc1c(C#N)c(-c2ccco2)n(/N=C/c2ccco2)c1N | 22.8 µM (inactive) | > 100 µM (inactive) | > 100 µM (inactive) | > 100 µM (inactive) | 11.2 µM (inactive) | > 100 µM (inactive) | 35.6 µM (inactive) | > 100 µM (inactive) | 11.3 µM (inactive) | > 100 µM (inactive) | > 100 µM (inactive) | > 100 µM (inactive) | > 100 µM (inactive) | 19.9 µM (inactive) | 43.3 µM (inactive) | 32.6 µM (inactive) | 24.9 µM (inactive) | 26.1 µM (inactive) | > 100 µM (inactive) | > 100 µM (inactive) |
| CC(=O)C1=C(C)N(c2ccc(C)cc2)C2(O)C3=C(C(=O)c4ccccc4C3=O)C(O)=CC12Cl (configuration not stated) | 15 µM (inactive) | 10.4 µM (inactive) | 12.7 µM (inactive) | 4.31 µM (inactive) | 43.8 µM (inactive) | 22.3 µM (inactive) | 11.1 µM (inactive) | 7.43 µM (inactive) | 31.8 µM (inactive) | 3.79 µM (inactive) | 20.9 µM (inactive) | 4.76 µM (inactive) | 8.85 µM (inactive) | 9.73 µM (inactive) | 55.1 µM (inactive) | 17 µM (inactive) | 12.8 µM (inactive) | 7.06 µM (inactive) | 5.11 µM (inactive) | 11.1 µM (inactive) |
| O=C(CC1(O)C(=O)Nc2c(Cl)cc(Cl)cc21)c1ccc(Br)cc1Br (configuration not stated) | 10.5 µM (inactive) | 4.24 µM (inactive) | 16.7 µM (inactive) | 1.04 µM (active) | 2.4 µM (inactive) | 17.7 µM (inactive) | 16.6 µM (inactive) | 0.946 µM (active) | 14.7 µM (inactive) | 12.8 µM (inactive) | 16 µM (inactive) | 18.7 µM (inactive) | 16.9 µM (inactive) | 11.7 µM (inactive) | 21.5 µM (inactive) | 13.1 µM (inactive) | 17.2 µM (inactive) | 1.56 µM (inactive) | 12.9 µM (inactive) | 16 µM (inactive) |
| [N-]=[N+]=Nc1nc2ccccc2c(N=[N+]=[N-])c1Cl | 28.6 µM (inactive) | > 100 µM (inactive) | > 100 µM (inactive) | > 100 µM (inactive) | 30.3 µM (inactive) | > 100 µM (inactive) | > 100 µM (inactive) | > 100 µM (inactive) | > 100 µM (inactive) | > 100 µM (inactive) | > 100 µM (inactive) | > 100 µM (inactive) | > 100 µM (inactive) | 25.6 µM (inactive) | 92 µM (inactive) | > 100 µM (inactive) | > 100 µM (inactive) | > 100 µM (inactive) | 98.4 µM (inactive) | > 100 µM (inactive) |
| Fc1ccccc1C1SCC2=Nc3ccccc3CN21 (configuration not stated) | > 100 µM (inactive) | > 100 µM (inactive) | > 100 µM (inactive) | > 100 µM (inactive) | > 100 µM (inactive) | > 100 µM (inactive) |  | > 100 µM (inactive) | > 100 µM (inactive) | > 100 µM (inactive) | > 100 µM (inactive) | 97.1 µM (inactive) | > 100 µM (inactive) | > 100 µM (inactive) | > 100 µM (inactive) | > 100 µM (inactive) | > 100 µM (inactive) | 79.8 µM (inactive) | 99.8 µM (inactive) | > 100 µM (inactive) |
| CCOC(=O)N(C)CCC1CC=CC(=O)C1c1cccc(OC)c1OC (configuration not stated) | 15 µM (inactive) | 20.9 µM (inactive) | 13.1 µM (inactive) | 19.4 µM (inactive) | 65.3 µM (inactive) | 13.8 µM (inactive) | 36.1 µM (inactive) | 23.2 µM (inactive) | 26.1 µM (inactive) | 10.6 µM (inactive) | 16.7 µM (inactive) | 11.8 µM (inactive) | 12.2 µM (inactive) | 10.5 µM (inactive) | 37.4 µM (inactive) | 17.3 µM (inactive) | 23.3 µM (inactive) | 14.3 µM (inactive) | 15.6 µM (inactive) | 16.6 µM (inactive) |
| CCCCCCCCCCCCC(O)[C@H]1CC[C@H](C(O)CCCCCC(=O)CCCCC2CC(C(C)=O)C(=O)O2)O1 (some centres not stated) | 15 µM (inactive) | 17.1 µM (inactive) | 16.2 µM (inactive) | 2.12 µM (inactive) | 10.4 µM (inactive) | 6.73 µM (inactive) | 11 µM (inactive) | 1.33 µM (inactive) | 11 µM (inactive) | 8.34 µM (inactive) | 3.03 µM (inactive) | 4.25 µM (inactive) | 4.95 µM (inactive) | 7.6 µM (inactive) | 9.68 µM (inactive) | 7.24 µM (inactive) | 9.4 µM (inactive) | 0.0264 µM (active) | 4.67 µM (inactive) | 8.97 µM (inactive) |
| Cc1ccc(N2CCC3(CC2)OCCO3)cc1 | > 100 µM (inactive) | > 100 µM (inactive) | > 100 µM (inactive) | > 100 µM (inactive) | > 100 µM (inactive) | > 100 µM (inactive) | > 100 µM (inactive) | > 100 µM (inactive) | > 100 µM (inactive) | > 100 µM (inactive) | > 100 µM (inactive) | > 100 µM (inactive) | > 100 µM (inactive) | > 100 µM (inactive) | > 100 µM (inactive) | > 100 µM (inactive) | > 100 µM (inactive) | > 100 µM (inactive) | > 100 µM (inactive) | > 100 µM (inactive) |
| CC(=O)O[C@H]1C(=O)[C@@]2(C)[C@H]([C@H](OC(=O)c3ccccc3)[C@]3(O)C[C@H](OC(=O)[C@H](O)[C@@H](NC(=O)c4cccc(N=[N+]=[N-])c4)c4ccccc4)C(C)=C1C3(C)C)[C@]1(OC(C)=O)CO[C@@H]1C[C@@H]2O | 0.0364 µM (active) | 1.07 µM (active) | 0.0634 µM (active) | < 0.0025 µM (active) | 0.0109 µM (active) | < 0.0025 µM (active) | 0.00679 µM (active) | < 0.0025 µM (active) | 0.0149 µM (active) | < 0.0025 µM (active) | 0.00859 µM (active) | < 0.0025 µM (active) | 0.0047 µM (active) | 0.045 µM (active) | 0.0122 µM (active) | 0.0164 µM (active) | 0.0129 µM (active) | < 0.0025 µM (active) | 0.00731 µM (active) | 1.33 µM (inactive) |
| Oc1cc(-c2cccc(F)c2)nc2cc3c(cc12)OCO3 | 0.2 µM (active) | 0.0513 µM (active) | 0.0705 µM (active) | 0.0313 µM (active) | 0.272 µM (active) |  | 0.102 µM (active) | 0.0653 µM (active) | 0.141 µM (active) | 0.0112 µM (active) | 0.07 µM (active) | 0.0222 µM (active) | 0.0473 µM (active) | 0.0546 µM (active) | 0.0698 µM (active) | 0.129 µM (active) | 0.124 µM (active) | 0.0241 µM (active) | 0.0345 µM (active) | 0.124 µM (active) |
